From ChEMBL document CHEMBL3272184

Assays:
[1] = target: T1, Acetylserotonin O-methyltransferase (Bos taurus) (UniProt P10950); experiment: Inhibition of bovine pineal gland hydroxyindole O-methyltransferase using 24 to 210 uM S-adenosylmethionine substrate
T1 sequence (whole entry): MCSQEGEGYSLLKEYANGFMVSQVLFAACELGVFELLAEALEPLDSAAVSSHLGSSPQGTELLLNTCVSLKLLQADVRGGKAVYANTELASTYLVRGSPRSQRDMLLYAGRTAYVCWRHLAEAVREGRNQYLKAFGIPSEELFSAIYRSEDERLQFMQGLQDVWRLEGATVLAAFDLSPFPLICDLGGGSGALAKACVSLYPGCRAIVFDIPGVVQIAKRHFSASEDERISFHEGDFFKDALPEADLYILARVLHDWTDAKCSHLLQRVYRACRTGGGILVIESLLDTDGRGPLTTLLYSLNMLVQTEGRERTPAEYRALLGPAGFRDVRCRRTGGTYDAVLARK

[2] = target: T2, Phenylethanolamine N-methyltransferase (Bos taurus) (UniProt P10938); experiment: Inhibition of bovine adrenal medulla phenylethanolamine N-methyltransferase using 24 to 210 uM S-adenosylmethionine substrate
T2 sequence (whole entry): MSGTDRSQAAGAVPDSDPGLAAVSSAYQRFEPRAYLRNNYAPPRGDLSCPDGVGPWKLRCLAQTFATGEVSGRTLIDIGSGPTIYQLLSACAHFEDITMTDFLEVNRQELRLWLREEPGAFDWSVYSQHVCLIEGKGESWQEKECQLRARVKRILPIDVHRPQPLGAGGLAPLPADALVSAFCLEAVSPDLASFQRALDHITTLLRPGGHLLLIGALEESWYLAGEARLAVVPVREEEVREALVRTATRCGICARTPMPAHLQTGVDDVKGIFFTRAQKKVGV

[3] = target: T3, Catechol O-methyltransferase (Rattus norvegicus) (UniProt P22734); experiment: Inhibition of Sprague-Dawley rat liver catechol O-methyltransferase using 24 to 210 uM S-adenosylmethionine substrate
T3 sequence (whole entry): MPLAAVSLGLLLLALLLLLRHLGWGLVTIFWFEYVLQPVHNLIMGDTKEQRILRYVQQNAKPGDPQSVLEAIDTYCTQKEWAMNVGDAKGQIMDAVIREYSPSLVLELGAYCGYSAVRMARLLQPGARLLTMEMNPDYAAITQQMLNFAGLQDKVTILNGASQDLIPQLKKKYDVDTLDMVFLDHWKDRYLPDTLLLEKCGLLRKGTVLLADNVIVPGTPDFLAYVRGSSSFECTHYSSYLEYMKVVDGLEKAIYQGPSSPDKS

Kis [1] [µM]	Kis [2] [µM]	Kis [3] [µM]	SMILES
18.5	29	36.3	Nc1ncnc2c1ncn2[C@@H]1O[C@H](CSCC[C@H](N)C(=O)O)[C@@H](O)[C@H]1O
51.8	–	–	Nc1ncnc2c1ncn2[C@@H]1C[C@@H](CSCC[C@H](N)C(=O)O)[C@@H](O)[C@H]1O
